According to US20210161868A1, “ANTI-INFLAMMATORY THERAPY IN ARRHYTHMOGENIC CARDIOMYOPATHY (ACM)” (Beth Israel Deaconess Medical Center, Inc., priority 2018, published 2021):
“Also recorded” adds a separate entry of the source.

System: neonatal rat ventricular myocytes (NRVMs) expressing JUP^2157del2
Experiment: In vitro cytokine assay of NRVM culture media
Type: cell-based
Conditions: Bay11-7082 5 μM, 24 hours
Experimental: Primary cultures were prepared from disaggregated ventricles of 1-day-old Wistar rat pups (Charles River) as previously described.^15 Cell suspensions were pre-plated to reduce fibroblast content, placed in collagen-coated chamber slides at a density of 2.4×10^5 cells/cm^2, and grown for 4 days at 37° C. in M199 medium (GIBCO) (supplemented with penicillin, 20 U/mL; streptomycin, 20 μg/mL; 10% neonatal calf serum and 0.1 mM bromodeoxyuridine) in a humidified atmosphere containing 1% CO2. Epinephrine (0.01 μmol/mL) was added during the first 24 hours of culture. At 24 hours post-seeding, cultures were transfected with an adenoviral construct expressing plakoglobin (JUP) with the 2157del2 mutation, as previously reported.^15 At 24 hours post-transfection, cultures were treated with Bay11-7082 (Sigma, […]) for an additional 24 hours. […]
Culture media from cells expressing 2157del2 plakoglobin in the presence or absence of Bay11-7082 (5 μM, 24 hours) were collected after 96 hours in culture, mixed with a cocktail of biotinylated detection antibodies, and incubated with nitrocellulose membranes spotted in duplicate with control and capture antibodies (R&D Systems). […] The cytokine array specifically detected rat cytokines whereas cells were grown in media containing neonatal bovine serum. […]

## Cc1ccc(S(=O)(=O)/C=C/C#N)cc1 [Bay 11-7082]
  accumulation of cytokines and chemoattractants in culture media: reduces; also recorded: greatly reduced
